Test results published in US20250250537A1, “IN VITRO INSECT FAT CULTIVATION FOR CELLULAR AGRICULTURE APPLICATIONS” (Trustees of Tufts College, priority 2022, published 2025).

Experiments:
[1] = system: Ms PCs; assay: Lipid accumulation screen in Ms PCs (BODIPY and Oil Red O staining, Oil Red O dye elution); type: cell-based, M. sexta; conditions: 1 mM, 7 days in culture
Protocol: To screen for lipid accumulation in Ms PCs, cells were seeded at 100,000 cells/cm^2 in 48-well plates. After 24 hours in culture, media was refreshed with growth media supplemented with variable concentrations (0, 0.01, 0.1, 1 mM) of water-soluble oleic acid (01257, Sigma-Aldrich) or Intralipid (I141, Sigma-Aldrich). After seven days in culture, cells were stained with BODIPY ([…], Fisher Scientific) at a 1:2,000 dilution and NucBlue (R37605, Fisher Scientific) or fixed and stained with Oil Red O (O0625, Sigma-Aldrich). Cells were imaged on a fluorescence microscope (BZ-X800, Keyence). To quantify lipid accumulation, Oil Red O dye from each condition was eluted with isopropanol and absorbance (500 nm) was measured on a microplate reader. To investigate lipid accumulation over time, cells were treated with 0.1 mM of Intralipid and stained with BODIPY and NucBlue on days 1, 4, 7 and 14.

[2] = system: S2 cells; conditions: 1 mM over 24 hours; cited from earlier work

CCCCCCCC/C=C\CCCCCCCC(=O)O [oleic acid]
lipid droplet formation (BODIPY and Oil Red O staining) [1]: visible | morphology, growth and viability of treated cells [1]: unhealthy morphology, minimal growth, and were assumed to be nonviable | increase in triacylglycerol content [2]: 5 fold
